In paper PMC6130489, “Caffeic acid methyl and ethyl esters exert potential antidiabetic effects on glucose and lipid metabolism in cultured murine insulin-sensitive cells through mechanisms implicating activation of AMPK” (Pharmaceutical Biology, 2017):

Key:
G6Pase = biological target: T1, G6Pase (Rattus norvegicus, UniProt P43428); assay: Enzymatic activity of G6Pase in H4IIE cells; assay type: cell-based; conditions: at 100 μM, relative to DMSO
T1 sequence (P43428 1-357): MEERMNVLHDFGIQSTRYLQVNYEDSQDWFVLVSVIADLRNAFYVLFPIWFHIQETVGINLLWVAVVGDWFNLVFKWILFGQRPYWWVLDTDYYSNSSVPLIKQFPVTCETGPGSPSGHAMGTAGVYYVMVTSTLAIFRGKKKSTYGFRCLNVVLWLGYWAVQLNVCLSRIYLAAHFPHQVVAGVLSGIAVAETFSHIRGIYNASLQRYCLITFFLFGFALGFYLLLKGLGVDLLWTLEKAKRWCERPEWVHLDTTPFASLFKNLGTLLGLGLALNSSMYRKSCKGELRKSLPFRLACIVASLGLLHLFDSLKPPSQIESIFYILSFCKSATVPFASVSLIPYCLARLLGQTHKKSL
Method: At 90% confluence, H4-IIE cells were treated with 12.5, 25, 50 and 100 μM of either CAME or CAEE in serum free medium. Vehicle (0.1% DMSO)-treated and 100 nM insulin-treated cells served as the negative and positive control respectively. The activity of G6Pase was assessed by measuring the rate of glucose production in the presence of a non-limiting amount of glucose-6-phosphate (G6P) as described elsewhere (Nachar et al. [2013]). Total glucose production was measured using a commercial glucose assay kit (AutoKit Glucose; Wako Diagnostics, Richmond, VA). Protein content was measured using bicinchoninic acid (BCA) assay (Simpson [2008]) and G6Pase activity was expressed in relation to protein content.
Figure 2. CAME and CAEE inhibit G6Pase by mechanisms involving activation of AMPK. (A) H4IIE hepatocytes were treated for 16 h with several concentrations (12.5, 25, 50 and100 μM) of either CAME or CAEE and G6Pase activity was determined colorimetrically using a commercial glucose assay kit as described under Materials and Methods. Data are expressed relative to vehicle control (0.1% DMSO, 0% inhibition). Insulin (100 nM) applied for similar treatment period served as the positive control. (B and C) Cells were treated with the optimal nontoxic concentration of either CAME, CAEE (50 μM each), or DMSO (0.1%) for 18 h, insulin (100 nM), AICAR (1 mM) applied for 30 min served as the positive controls. (B) The upper blot was probed with anti-phospho-AMPK antibody (Thr 172) and the lower blot was probed with anti-pan AMPK. (C) Blots were probed with antibodies against phospho-Akt (Ser 473) or pan-Akt. Immunoblots are representative of three independent experiments with similar results. (D) Data are expressed as phospho-AMPK/pan-AMPK and are given as mean ± SEM from 3 experiments. *p < 0.05 indicates a significant difference, **(p < 0.01), ***(p < 0.001) from the vehicle control group.

C2C12 cells = system: C2C12 cells; parameters: method as in Eid et al. [2010]; conditions: cultured C2C12 cells; ref Eid et al. [2010]; cited from earlier work
AMPK = assay: Western immunoblot phospho-AMPK in H4IIE cells; assay type: cell-based, rat; conditions: 50 μM, 18 h, AICAR 1 mM 30 min as positive control
Method: L6 cells myotubes, H4IIE cells and 3T3-L1 adipocytes were treated with either CAME, CAEE (50 μM each) or vehicle (DMSO) for 18 h. Insulin (100 nM) or aminoimidazole carboxamide ribonucleotide (AICAR; 1 mM) were added to some vehicle-treated wells 30 min prior to the end of the treatment and served as the positives controls. Protein content was assayed by the bicinchoninic acid method (Thermo Scientific Pierce Protein Research, Rockford, IL) standardized to bovine serum albumin. Western immunoblotting was performed as described elsewhere (Eid et al. [2010]). […] Immunoreactive bands were visualized by enhanced chemiluminescence and quantified by the Scion Image program (Scion Corporation, Frederick, MD). […]
Figure 2. […] (A) H4IIE hepatocytes were treated for 16 h with several concentrations (12.5, 25, 50 and100 μM) of either CAME or CAEE and G6Pase activity was determined colorimetrically using a commercial glucose assay kit as described under Materials and Methods. […] (D) Data are expressed as phospho-AMPK/pan-AMPK and are given as mean ± SEM from 3 experiments. *p < 0.05 indicates a significant difference, **(p < 0.01), ***(p < 0.001) from the vehicle control group.

3T3-L1 pre-adipocytes = assay: Thymidine incorporation assay (mitotic clonal expansion); assay type: cell-based; conditions: Mus musculus, 3T3-L1 cells undergoing mitotic clonal expansion; for IC50: read-out: thymidine incorporation inhibition IC50
Method: To assess for the inhibitory activity of CAME and CAEE on and mitotic clonal expansion of 3T3-L1 adipocytes, cells were separately treated with 12.5, 25, 50 and 100 μM of CAME or CAEE for […] in differentiation media and the incorporation of radio-labeled methyl-^3H-thymidine (MP Biomedicals cat #240410, Irvine, CA) into the newly replicated DNA was measured as described elsewhere (Martineau et al. [2010]). The incorporated radioactivity was measured in a liquid scintillation counter (LKB Wallac 1219 Rackbeta; Perkin Elmer Life and Analytical Sciences, Inc., Boston, MA).
Figure 3. (A and B) Anti-adipogenic effect of CAME and CAEE in 3T3-L1 adipocytes. Cells were treated with several concentrations (12.5, 25, 50 and100 μM) of either CAME or CAEE in DMEM containing 10% FBS and the standard adipogenic cocktail (500 μM 3-isobutyl-1-methylxanthine, 500 nM insulin and 10 μM dexamethasone) for 2 days then in DMEM containing 10% FBS and 500 nM insulin starting from days 2-8 of differentiation. This medium was changed every 2 days. (A) On day 8, lipid content was measured by AdipoRed assay. Results represent the means ± SEM of three independent experiments. *Indicates a significant (p ≤ 0.05) difference, **(p < 0.01), ***(p < 0.001) from the vehicle control group. […] Vehicle-treated cells show the presence of lipid droplets. On the other hand, cells treated with the maximum nontoxic concentration (100 μM) of either CAME or CAEE retained the fibroblast-like morphology of pre-adipocytes and were devoid of lipid droplets. (C) CAME and CAEE inhibit pre-adipocyte clonal expansion. Confluent 3T3-L1 pre-adipocytes undergoing clonal expansion in response to differentiation cues were treated with vehicle or 12.5, 25, 50 and 100 μM of either CAME or CAEE for 20 h and incorporation of ^3H-labeled thymidine was measured. Normalized data are presented as mean ± SEM of three independent experiments. **Indicates a significant (p ≤ 0.01) difference, ***(p < 0.001) from the vehicle control group.

In the case of `COC(=O)/C=C/c1ccc(O)c(O)c1` [CAME, CA methyl ester], the inhibition at 100 µM (G6Pase) is listed as 62 ± 6.9%, the glucose uptake (C2C12 cells) is listed as “potently enhanced glucose uptake” and the AMPK phosphorylation (AMPK) is listed as “increase in AMPK phosphorylation to the same extent as the positive control AICAR”. It also gave an IC50 (3T3-L1 pre-adipocytes) of 39.4 µM and an inhibition at 100 µM (3T3-L1 pre-adipocytes) of 92.7 ± 2.6%.
For `CCOC(=O)/C=C/c1ccc(O)c(O)c1` [CAEE, caffeic acid ethyl ester], the inhibition at 100 µM (G6Pase) is listed as 62.7 ± 6%, the glucose uptake (C2C12 cells) is listed as “potently enhanced glucose uptake” and the AMPK phosphorylation (AMPK) is listed as “increase in AMPK phosphorylation to the same extent as the positive control AICAR”. It also gave an IC50 (3T3-L1 pre-adipocytes) of 13.1 µM and an inhibition at 100 µM (3T3-L1 pre-adipocytes) of 86.9 ± 3%.
